Reference: patent US20230129866A1 (PureTech LYT 100, Inc., priority 2020, published 2023)
Like-named read-outs stand apart in the source and are kept apart here. One block for each compound: values may come before it.

Key:
[1] = 91-day repeat dose oral toxicity and toxicokinetics study in rats; conditions: for Ratio of exposure (AUC), Group 4 (LYT-100 at 750 mg/kg) analyte / Group 5 (SD-559 at 750 mg/kg) analyte: LYT-100/SD-559, SD-790/SD-788, SD-1051/SD-1050, SD-789 Group 4/SD-789 Group 5; for Cmax in rat relative to human: male rat Day 1 vs human; for Exposure in rats relative to humans after 28 days of daily dosing: male rat Day 28 vs human; for Exposure (AUC) in rat relative to human: male rats 750 mg/kg Day 1 vs human single 801 mg dose; for Dose proportionality of AUC0-24 over 250 to 750 mg/kg / Dose proportionality of Cmax over 250 to 750 mg/kg: rats dosed with SD-560, Groups 2 to 4, general statement
[2] = Phase 1 multiple ascending dose (MAD) study Part 1, healthy volunteers (PK and safety); conditions: for Accumulation ratios (AUC96-108/AUC0-12) across all dose groups: 100 mg, 250 mg, 500 mg, and 750 mg BID, Cohorts 1-4, FIG. 19; for Average ratio to the parent (M/P) by AUC: range in brackets
[3] = Single 801 mg dose, double-blinded, cross-over study of LYT-100 vs pirfenidone in healthy volunteers (PK and safety); conditions: for Cmax (ng/mL), Mean / AUC0-t (hr*ng/mL), Mean / tmax (hr), Median / % AUC extrap, Mean / AUC(inf) (hr*ng/mL), Mean / Kel (1/hr), Mean / t1/2 (hr), Mean: fed; for Cmax (ng/mL), Mean: healthy volunteers; for Cmax (ng/mL), Mean / AUC0-t (hr*ng/mL), Mean / tmax (hr), Median: n = 24
[4] = Phase 1 food effect study Part 2 (Cohort 5), single 500 mg dose fed vs fasted; format: in vivo, human; conditions: LYT-100 @500 mg single dose
Procedure: The comparison will be based on Day 1, Day 2 and Day 3 PK plasma samples after the first dose of study drug on Day 1 under fast and fed conditions of Part 2.
Subjects will be admitted to the CRU on Day-1 and will fast overnight for at least 10 h.

[5] = 200 mg SD-559 (pirfenidone) BID, Huang et al.; in ng/mL; cited from earlier work
[6] = humans, cited from earlier work
[7] = Treatment = LYT-100, single 801 mg oral dose
[8] = Treatment = LYT-100, single 801 mg oral dose, n = 24 (LYT-110 n = 23)
[9] = after LYT-100 801 mg, metabolite/LYT-100
[10] = after LYT-100 801 mg, metabolite/LYT-100, molecular weight corrected
[11] = after Pirfenidone (LYT-101) 801 mg, metabolite/LYT-101
[12] = after Pirfenidone (LYT-101) 801 mg, metabolite/LYT-101, molecular weight corrected
[13] = Treatment = Pirfenidone, single 801 mg oral dose
[14] = Treatment = Pirfenidone, single 801 mg oral dose, n = 24 (LYT-111 n = 19)

Compound: [2H]C([2H])(O)c1ccc(=O)n(-c2ccccc2)c1 [SD-790, d2-5-hydroxymethyl-pirfenidone]
- Ratio of exposure (AUC), Group 4 (LYT-100 at 750 mg/kg) analyte / Group 5 (SD-559 at 750 mg/kg) analyte ([1]; Day 1, Female rats): 2.50
- Ratio of exposure (AUC), Group 4 (LYT-100 at 750 mg/kg) analyte / Group 5 (SD-559 at 750 mg/kg) analyte ([1]; Day 1, Male rats): 2.22
- Ratio of exposure (AUC), Group 4 (LYT-100 at 750 mg/kg) analyte / Group 5 (SD-559 at 750 mg/kg) analyte ([1]; Day 28, Female rats): 2.59
- Ratio of exposure (AUC), Group 4 (LYT-100 at 750 mg/kg) analyte / Group 5 (SD-559 at 750 mg/kg) analyte ([1]; Day 28, Male rats): 2.54
- Cmax in rat relative to human [1]: ~1825 fold
- Exposure in rats relative to humans after 28 days of daily dosing [1]: ~1600 fold
- Exposure (AUC) in rat relative to human [1]: about 1250 fold
- Dose proportionality of AUC0-24 over 250 to 750 mg/kg [1]: dose proportional
- Dose proportionality of Cmax over 250 to 750 mg/kg [1]: dose proportional
- Exposure and Cmax vs the non-deuterated corresponding metabolite (SD-788) from SD-559 ([1]; rats, 750 mg/kg each, all days, both genders): almost twice
- Accumulation ratios (AUC96-108/AUC0-12) across all dose groups [2]: ~1
- Average ratio to the parent (M/P) by AUC ([2]; Cohort 4, 750 mg BID): 0.0025 (0.0020-0.0029)
- Average ratio to the parent (M/P) by AUC ([2]; Cohort 6, 1000 mg BID): 0.0028 (0.0018-0.0038)
- Cmax (ng/mL), Mean [3, 7]: 20.6 ng/mL
- AUC0-t (hr*ng/mL), Mean [3, 7]: 111 ng·h/mL
- tmax (hr), Median [3, 7]: 2.50 h
- % AUC extrap, Mean [3, 8]: 10.1%
- AUC(inf) (hr*ng/mL), Mean [3, 8]: 124 ng·h/mL
- Kel (1/hr), Mean [3, 8]: 0.294 h⁻¹
- t1/2 (hr), Mean [3, 8]: 2.76 h
- Metabolite/Parent Ratio, AUC0-∞, Median [3, 9]: 0.2%
- Metabolite/Parent Ratio, Cmax, Median [3, 9]: 0.2%
- Metabolite/Parent Ratio, AUC0-∞, Mean [3, 10]: 0.2%
- Metabolite/Parent Ratio, Cmax, Mean [3, 10]: 0.2%

Compound: Cc1ccc(=O)n(-c2ccc(O)cc2)c1 [SD-1050, 4′-hydroxy-pirfenidone]
- Metabolite/Parent Ratio, Cmax, Median [3, 11]: 0.0%
- Metabolite/Parent Ratio, Cmax, Mean [3, 12]: 0.0%

- AUC, % Change Fed vs Fasted [4]: −5%
- Cmax, % Change Fed vs Fasted [4]: −1.7%
- Tmax, % Change Fed vs Fasted [4]: +33%
Compound: O=C(O)c1ccc(=O)n(-c2ccccc2)c1 [LYT-105, 5-carboxy-pirfenidone]
- observed Cmax [5]: 1476
- Plasma exposure as percent of the exposure to pirfenidone ([6]; Huang 2013): approximately 50%
- Share of recovered drug material excreted as this metabolite ([6]; urine, after oral pirfenidone): > 95%
- Ratio of exposure (AUC), Group 4 (LYT-100 at 750 mg/kg) analyte / Group 5 (SD-559 at 750 mg/kg) analyte ([1]; Day 1, Female rats): 0.49
- Ratio of exposure (AUC), Group 4 (LYT-100 at 750 mg/kg) analyte / Group 5 (SD-559 at 750 mg/kg) analyte ([1]; Day 1, Male rats): 0.45
- Ratio of exposure (AUC), Group 4 (LYT-100 at 750 mg/kg) analyte / Group 5 (SD-559 at 750 mg/kg) analyte ([1]; Day 28, Female rats): 0.71
- Ratio of exposure (AUC), Group 4 (LYT-100 at 750 mg/kg) analyte / Group 5 (SD-559 at 750 mg/kg) analyte ([1]; Day 28, Male rats): 0.57
- Cmax in rat relative to human [1]: ~9 fold
- Exposure in rats relative to humans after 28 days of daily dosing [1]: ~7 fold
- Exposure (AUC) in rat relative to human [1]: about 8 fold
- Dose proportionality of AUC0-24 over 250 to 750 mg/kg [1]: dose proportional
- Dose proportionality of Cmax over 250 to 750 mg/kg [1]: approximately dose proportional
- Lower Cmax and exposure of SD-789 after SD-560 than of SD-789 after SD-559 ([1]; rats, 750 mg/kg each): approximately 50%
- Accumulation ratios (AUC96-108/AUC0-12) across all dose groups [2]: ~1
- Dose dependence of AUC96-108 across all dose Cohorts ([2]; 100 to 1000 mg BID, FIG. 25): linear dose proportionality
- Average ratio to the parent (M/P) by AUC ([2]; Cohort 4, 750 mg BID): 0.45 (0.37-0.50)
- Average ratio to the parent (M/P) by AUC ([2]; Cohort 6, 1000 mg BID): 0.56 (0.44-0.66)
- observed Cmax ([2]; LYT-100 100 mg BID with food): 567 ng/mL
- % difference (vs. 200 mg SD-559) Cmax ([2]; LYT-100 100 mg vs Huang et al. data extrapolated assuming dose proportionality, LYT-100 vs SD-559, SD-789 vs SD-789): −23%
- observed Cmax ([2]; LYT-100 250 mg BID with food): 1170 ng/mL
- % difference (vs. 200 mg SD-559) Cmax ([2]; LYT-100 250 mg vs Huang et al. data extrapolated assuming dose proportionality): −37%
- observed Cmax ([2]; LYT-100 500 mg BID with food): 2360 ng/mL
- % difference (vs. 200 mg SD-559) Cmax ([2]; LYT-100 500 mg vs Huang et al. data extrapolated assuming dose proportionality): −36%
- observed Cmax ([2]; LYT-100 750 mg BID with food): 3370 ng/mL
- % difference (vs. 200 mg SD-559) Cmax ([2]; LYT-100 750 mg vs Huang et al. data extrapolated assuming dose proportionality): −39%
- observed Cmax ([2]; LYT-100 1000 mg BID with food): 4940 ng/mL
- % difference (vs. 200 mg SD-559) Cmax ([2]; LYT-100 1000 mg vs Huang et al. data extrapolated assuming dose proportionality): −33%
- Average ratio of metabolite to the parent (mtp) by AUC ([2]; MAD study, all doses): 0.45
- Cmax (ng/mL), Mean [3, 7]: 3970 ng/mL
- AUC0-t (hr*ng/mL), Mean [3, 7]: 23090 ng·h/mL
- tmax (hr), Median [3, 7]: 2.50 h
- % AUC extrap, Mean [3, 8]: 1.13%
- AUC(inf) (hr*ng/mL), Mean [3, 8]: 23350 ng·h/mL
- Kel (1/hr), Mean [3, 8]: 0.262 h⁻¹
- t1/2 (hr), Mean [3, 8]: 2.91 h
- Cmax (ng/mL), Mean [3, 13]: 5241 ng/mL
- AUC0-t (hr*ng/mL), Mean [3, 13]: 26932 ng·h/mL
- tmax (hr), Median [3, 13]: 3.00 h
- % AUC extrap, Mean [3, 14]: 0.843%
- AUC(inf) (hr*ng/mL), Mean [3, 14]: 27159 ng·h/mL
- Kel (1/hr), Mean [3, 14]: 0.288 h⁻¹
- t1/2 (hr), Mean [3, 14]: 2.55 h
- Metabolite/Parent Ratio, AUC0-∞, Median [3, 9]: 32.3%
- Metabolite/Parent Ratio, Cmax, Median [3, 9]: 33.5%
- Metabolite/Parent Ratio, AUC0-∞, Mean [3, 10]: 43.8%
- Metabolite/Parent Ratio, Cmax, Mean [3, 10]: 43.3%
- Metabolite/Parent Ratio, AUC0-∞, Mean ([3]; after LYT-100 801 mg, metabolite/LYT-100, molecular weight corrected, listed as 5-carboxy-pirfenidone): 43.8%
- Metabolite/Parent Ratio, AUC0-∞, Median [3, 11]: 53.7%
- Metabolite/Parent Ratio, Cmax, Median [3, 11]: 57.5%
- Metabolite/Parent Ratio, AUC0-∞, Mean [3, 12]: 65.9%
- Metabolite/Parent Ratio, Cmax, Mean [3, 12]: 68.1%
- Metabolite/Parent Ratio, AUC0-∞, Mean ([3]; after Pirfenidone (LYT-101) 801 mg, metabolite/LYT-101, molecular weight corrected, listed as 5-carboxy-pirfenidone): 65.9%
- Reduction of AUC after LYT-100 relative to pirfenidone ([3]; single 801 mg dose each): approximately 15%
- Reduction of Cmax after LYT-100 relative to pirfenidone ([3]; single 801 mg dose each): ~25%

Compound: [2H]C([2H])([2H])c1ccc(=O)n(-c2ccc(O)cc2)c1 [SD-1051, d3-4′-hydroxy-pirfenidone]
- Ratio of exposure (AUC), Group 4 (LYT-100 at 750 mg/kg) analyte / Group 5 (SD-559 at 750 mg/kg) analyte ([1]; Day 1, Female rats): 21.77
- Ratio of exposure (AUC), Group 4 (LYT-100 at 750 mg/kg) analyte / Group 5 (SD-559 at 750 mg/kg) analyte ([1]; Day 1, Male rats): 34.51
- Ratio of exposure (AUC), Group 4 (LYT-100 at 750 mg/kg) analyte / Group 5 (SD-559 at 750 mg/kg) analyte ([1]; Day 28, Female rats): 38.04
- Dose proportionality of AUC0-24 over 250 to 750 mg/kg [1]: increased dose proportionally on Day 1
- Dose proportionality of Cmax over 250 to 750 mg/kg [1]: less than dose proportional
- Accumulation ratios (AUC96-108/AUC0-12) across all dose groups [2]: ~1
- Average ratio to the parent (M/P) by AUC ([2]; Cohort 4, 750 mg BID): 0.0017 (0.0012-0.0022)
- Average ratio to the parent (M/P) by AUC ([2]; Cohort 6, 1000 mg BID): 0.0037 (0.0030-0.0058)
- Quantifiability in human plasma ([3]; after LYT-100): not quantifiable
- Metabolite/Parent Ratio, AUC0-∞, Median [3, 9]: 0.1%
- Metabolite/Parent Ratio, Cmax, Median [3, 9]: 0.1%
- Metabolite/Parent Ratio, AUC0-∞, Mean [3, 10]: 0.1%
- Metabolite/Parent Ratio, Cmax, Mean [3, 10]: 0.1%

Compound: O=c1ccc(CO)cn1-c1ccccc1 [SD-788, 5-hydroxymethyl-pirfenidone]
- Formation greater in terms of overall systemic exposure (AUC) after administration of LYT-100 ([3]; LYT-100 vs pirfenidone, single 801 mg dose): approximately 50%
- Cmax (ng/mL), Mean [3, 13]: 17.1 ng/mL
- AUC0-t (hr*ng/mL), Mean [3, 13]: 75.8 ng·h/mL
- tmax (hr), Median [3, 13]: 2.50 h
- % AUC extrap, Mean [3, 14]: 10.3%
- AUC(inf) (hr*ng/mL), Mean [3, 14]: 89.7 ng·h/mL
- Kel (1/hr), Mean [3, 14]: 0.367 h⁻¹
- t1/2 (hr), Mean [3, 14]: 2.04 h
- Metabolite/Parent Ratio, AUC0-∞, Median [3, 11]: 0.2%
- Metabolite/Parent Ratio, Cmax, Median [3, 11]: 0.2%
- Metabolite/Parent Ratio, AUC0-∞, Mean [3, 12]: 0.2%
- Metabolite/Parent Ratio, Cmax, Mean [3, 12]: 0.2%
